Measurements published in patent US11261220B2, “Salmonella siiE-derived peptides for manipulation of long-lived plasma cells” (DEUTSCHES RHEUMA-FORSCHU[…], priority 2017, dated 2022).

Experiments:
[1] = test system: B cells and IgG-secreting plasma cells in the BM; conditions: i.p. twice a day 5 μg for 4 days
Description: C57BL/6 mice were injected i.p. twice a day with 5 μg of AMD3100 for 4 days. B220+cells and IgG-secreting plasma cells were analyzed on day 4 by flow cytometry (H) and by ELISpot assay (I), respectively. n=5-6. The data are representative of at least two independent experiments. *p<0.05, **p<0.01, ***p<0.001.
To count Ig-secreting cells, MultiScreen filter plates with PVDF membrane (Merck) were activated for 1 min with 35% ethanol followed by washing and were coated with 7.2 μg/ml of goat anti-mouse Ig, F(ab′)2 fragment (Jackson ImmunoResearch) overnight at 4° C. After washing and blocking with RPMI1640/10% FCS, diluted fresh cells were added and incubated for 5 h at 37° C. Following incubation, alkaline phosphatase-conjugated anti-IgG, IgG1, IgM or IgA (Southern Biotech) was added for 1 h at 37° C. and spots were visualized with BCIP/NBT Plus substrate (Mabtech) and were counted by ELISpot reader (AID).

[2] = test system: anti-DNA IgG-secreting plasma cells in the BM; test: Murine model of systemic lupus erythematosus, anti-DNA IgG ELISpot in BM; type: in vivo; conditions: NZB/VV Fl female mice 5-6 months old, i.p. 100 μg on days 0, 3, 7 and 10, ELISpot on day 11
Description: FIG. 15. SiiE129 peptide reduce numbers of DNA-specific IgG-secreting plasma cells in the bone marrow. […] NZB/VV Fl female mice (5-6 months old) received i.p. 100 μg peptide coding SiiE amino acid 129-168 on days 0, 3, 7 and 10 and on day 11 were analyzed for anti-DNA IgG-secreting cells in the BM by ELISpot assay. n=5-6. The data are representative of two independent experiments.
NZB/VV Fl female mice (5-6 months old) received i.p. 100 μg peptide coding SiiE amino acid 129-168 on days 0, 3, 7 and 10 and on day 11 were analyzed for anti-DNA IgG-secreting cells in the BM by ELISpot assay.

[3] = test system: BM IgG-secreting plasma cells; test: ELISpot count of Ig-secreting cells the day after i.p. SiiE peptide; type: in vivo; conditions: C57BL/6 mice, i.p. 100 μg peptide, analyzed on the next day
Description: FIG. 5. Identification of the microbial component reducing numbers of BM IgG-secreting plasma cells. (A) Salmonella colonizes in the spleen and liver but not in the BM. The CFU of Salmonella in the spleen, liver and BM of Salmonella-infected mice on day 4 after infection was counted. The dotted line represents the limit of detection. n=3-6. […] C57BL/6 mice received 200 μl of LB medium, untreated or LPS-depleted culture supernatants from flagellin-deficient attenuated Salmonella or Escherichia coli (ΔLonΔFIhD) and on the next day (24 h later) were analyzed for IgG-secreting cells by ELISpot assay. n=8. […] Mice were infected i.p. with 200 μl of LB and LPS-depleted supernatant from flagellin-deficient attenuated Salmonella on day 41 and analyzed for IgG-secreting cells on the next day. n=6. […] C57BL/6 mice received i.p. 200 μl of LB medium and LPS-depleted supernatants from attenuated Salmonella ΔLon or ΔLonΔSiiE and on the next day were analyzed for IgG-secreting cells by ELISpot assay. n=5. […] C57BL/6 mice received i.p. 100 μg peptide coding SiiE amino acid 129-168 and on the next day were analyzed for IgG- and IgM-secreting cells in the BM and spleen. n=5. […] BM or splenic cells from C57BL/6 mice were incubated with 30 μg/ml of GST-SiiE 97-170 or GST protein, stained with anti-GST antibodies, and analyzed by flow cytometry. n=3. […] Adherent cells were counted after washing.

Row | Molecule | B cell numbers in the BM ([1]; B220+ cells by flow cytometry on day 4) | numbers of IgG-secreting plasma cells in the BM ([1]; ELISpot on day 4) | number of anti-DNA IgG-secreting cells in bone marrow [2] | number of anti-DNA IgG-secreting cells in bone marrow ([2]; listed as SiiE129 peptide) | numbers of BM IgG-secreting plasma cells [3] | numbers of BM IgG-secreting plasma cells ([3]; listed as peptide coding SiiE amino acid 129-168)
1 | c1cc(CN2CCCNCCNCCCNCC2)ccc1CN1CCCNCCNCCCNCC1 [AMD3100] | numerically reduces B cells | but not IgG-secreting plasma cells in the BM | – | – | – | –
2 | KEADKAKEEAEKAKEAAEKALNEAFEVQNSSKQIEEMLQN (listed as Salmonella enterica) [SiiE 129-168] | – | – | reduces the number of Anti-DNA IgG-secreting cells in bone marrow | reduces numbers of anti-DNA IgG-secreting plasma cells in the BM | markedly reduced numbers of BM IgG-secreting plasma cells | reduces numbers of BM IgG-secreting plasma cells
